Measured values taken from PubChem BioAssay AID330 (DTP/NCI, 2004).
Several values for one entry are separate records, joined by “and”; a condition that tells them apart may be missing. Equal entries are not always repeated. Inconclusive results and toxic doses are left out. How the source made its calls: active means survival T/C of 150% or more; inactive means T/C below 125% in these data.

Test system: P388 leukemia ip, CD2F1 mice, survival T/C
Assay: NCI In Vivo Anticancer Drug Screen. Data for tumor model P388 Leukemia (intraperitoneal) in CD2F1 (CDF1) mice
Settings: endpoint: median survival time, higher = longer survival
Outline: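 Mice carrying the transplanted tumor received test compound or vehicle. Survival was recorded in each group, and the value is the treated-group measurement divided by that of the vehicle-treated control group.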

[1] = dose: 50.0 mg/kg/injection, schedule: Q01DX005 (ip), vehicle: saline
[2] = dose: 100.0 mg/kg/injection, schedule: Q01DX005 (ip), vehicle: saline
[3] = dose: 200.0 mg/kg/injection, schedule: Q01DX005 (ip), vehicle: saline
[4] = dose: 240.0 mg/kg/injection, schedule: Q01DX005 (ip), vehicle: saline with Tween-80
[5] = dose: 50.0 mg/kg/injection, schedule: Q01DX009 (ip), vehicle: saline with Tween-80
[6] = dose: 50.0 mg/kg/injection, schedule: Q01DX009 (ip), vehicle: saline
[7] = dose: 100.0 mg/kg/injection, schedule: Q01DX009 (ip), vehicle: saline
[8] = dose: 200.0 mg/kg/injection, schedule: Q01DX009 (ip), vehicle: saline
[9] = dose: 50.0 mg/kg/injection, schedule: Q01DX005 (ip), vehicle: saline with Tween-80
[10] = dose: 100.0 mg/kg/injection, schedule: Q01DX005 (ip), vehicle: saline with Tween-80
[11] = dose: 200.0 mg/kg/injection, schedule: Q01DX005 (ip), vehicle: saline with Tween-80
[12] = dose: 60.0 mg/kg/injection, schedule: Q01DX005 (ip), vehicle: saline
[13] = dose: 200.0 mg/kg/injection, schedule: Q01DX009 (ip), vehicle: saline with Tween-80
[14] = dose: 100.0 mg/kg/injection, schedule: Q01DX009 (ip), vehicle: saline with Tween-80

Measured: T/C

O=C(CC(C(=O)O)N1CCNCC1)c1ccc(Cl)cc1 (stereo unspecified)
inactive: [1] 100 % of control | [2] 107 % of control | [3] 101 % of control

NS(=O)(=O)c1ccc(Nc2c3ccccc3nc3c([N+](=O)[O-])cccc23)cc1
inactive: dose: 15.0 mg/kg/injection, schedule: Q01DX005 (ip), vehicle: saline with Tween-80 97 % of control | dose: 30.0 mg/kg/injection, schedule: Q01DX005 (ip), vehicle: saline with Tween-80 90 % of control | [4] 88 % of control

COc1cccc2c1C(=O)c1c(O)c3c(c(O)c1C2=O)C[C@@](O)(C(O)CO)C[C@@H]3OC1CC(N(Cc2ccccc2)Cc2ccccc2)C(O)C(C)O1 (stereo partly specified)
active: dose: 50.0 mg/kg/injection, schedule: Q04DX003 (ip), vehicle: water 170 % of control | dose: 100.0 mg/kg/injection, schedule: Q04DX003 (ip), vehicle: water 209 % of control and 212 % of control
inactive: dose: 6.25 mg/kg/injection, schedule: Q04DX003 (ip), vehicle: water 100 % of control | dose: 12.5 mg/kg/injection, schedule: Q04DX003 (ip), vehicle: water 109 % of control | dose: 25.0 mg/kg/injection, schedule: Q04DX003 (ip), vehicle: water 100 % of control

O=C(O)c1c[nH]c2cc([N+](=O)[O-])ccc2c1=O
inactive: dose: 12.5 mg/kg/injection, schedule: Q01DX009 (ip), vehicle: saline with Tween-80 94 % of control | dose: 25.0 mg/kg/injection, schedule: Q01DX009 (ip), vehicle: saline with Tween-80 88 % of control | [5] 87 % of control | [6] 104 % of control

CCCCC(CC)C(=O)NCCCN(C)C (stereo unspecified)
inactive: [1] 99 % of control | [2] 99 % of control | [3] 94 % of control

CC(=O)c1c(O)cc2c3c1OC(C)(C)C1CCC(C)(CC31)O2 (stereo unspecified)
inactive: dose: 6.25 mg/kg/injection, schedule: Q01DX009 (ip), vehicle: saline 105 % of control | dose: 12.5 mg/kg/injection, schedule: Q01DX009 (ip), vehicle: saline 105 % of control | dose: 25.0 mg/kg/injection, schedule: Q01DX009 (ip), vehicle: saline 104 % of control | [7] 89 % of control | [8] 93 % of control

O=c1[nH]c2c([N+](=O)[O-])cccc2nc1/C=C(\O)c1cccc([N+](=O)[O-])c1
inactive: dose: 7.5 mg/kg/injection, schedule: Q01DX005 (ip), vehicle: Klucel + Tween-80 94 % of control | dose: 15.0 mg/kg/injection, schedule: Q01DX005 (ip), vehicle: Klucel + Tween-80 94 % of control | dose: 30.0 mg/kg/injection, schedule: Q01DX005 (ip), vehicle: Klucel + Tween-80 88 % of control

NCCCCCCCC(=O)NCCCCCCCC(=O)NCCCCCCCC(=O)NCCCCCCCC(=O)NN
inactive: [9] 100 % of control | [10] 100 % of control | [11] 91 % of control

CC1Oc2cc3c(-c4c(O)cc(O)c5c(O)c6c(cc45)OC(C)C(C)C6=O)c(O)cc(O)c3c(O)c2C(=O)C1C (stereo unspecified)
inactive: dose: 1.25 mg/kg/injection, schedule: Q01DX005 (ip), vehicle: saline 101 % of control | dose: 1.25 mg/kg/injection, schedule: Q01DX005 (ip), vehicle: suspension in saline 100 % of control | dose: 2.5 mg/kg/injection, schedule: Q01DX005 (ip), vehicle: saline 100 % of control | dose: 2.5 mg/kg/injection, schedule: Q01DX005 (ip), vehicle: suspension in saline 95 % of control | dose: 5.0 mg/kg/injection, schedule: Q01DX005 (ip), vehicle: suspension in saline 121 % of control | dose: 10.0 mg/kg/injection, schedule: Q01DX005 (ip), vehicle: suspension in saline 116 % of control | dose: 20.0 mg/kg/injection, schedule: Q01DX005 (ip), vehicle: suspension in saline 110 % of control

CC(C)(OC(C)(C)C(=O)O)C(=O)O
inactive: [6] 99 % of control | [7] 94 % of control | [8] 92 % of control

COc1ccc2c(n1)Sc1nc3ccccc3nc1N2
inactive: dose: 60.0 mg/kg/injection, schedule: Q01DX005 (ip), vehicle: saline with Tween-80 100 % of control | dose: 120.0 mg/kg/injection, schedule: Q01DX005 (ip), vehicle: saline with Tween-80 100 % of control | [4] 101 % of control

NCCCSc1ccccc1
inactive: [12] 99 % of control | dose: 120.0 mg/kg/injection, schedule: Q01DX005 (ip), vehicle: saline 97 % of control

Cc1occ(Br)c(=O)c1O
inactive: [1] 104 % of control | [2] 103 % of control | [3] 103 % of control

Nc1nc(N)c2cc(Sc3ccc4ccccc4c3)ccc2n1
inactive: [5] 119 % of control | [13] 119 % of control

CCOC(=O)C12CCC(C(=O)OCC)(CC13SCCS3)C1(C2)SCCS1
inactive: dose: 100.0 mg/kg/injection, schedule: Q01DX001 (ip), vehicle: saline with Tween-80 97 % of control | dose: 200.0 mg/kg/injection, schedule: Q01DX001 (ip), vehicle: saline with Tween-80 99 % of control | dose: 400.0 mg/kg/injection, schedule: Q01DX001 (ip), vehicle: saline with Tween-80 97 % of control

CCC(CC)C(=O)NN(C)C
inactive: [1] 101 % of control | [2] 100 % of control

CCOC(=O)C(NC(=O)C(Cl)Cl)C(O)c1ccccc1 (stereo unspecified)
inactive: [9] 100 % of control | [10] 100 % of control | [11] 89 % of control

C=C1C(=O)OC2C1CCC(=C)C1CC(OC3OC(CO)C(O)C(O)C3O)C(=C)C12 (stereo unspecified)
inactive: dose: 50.0 mg/kg/injection, schedule: Q04DX003 (ip), vehicle: saline with Tween-80 93 % of control | dose: 100.0 mg/kg/injection, schedule: Q04DX003 (ip), vehicle: saline with Tween-80 105 % of control and 86 % of control | dose: 200.0 mg/kg/injection, schedule: Q04DX003 (ip), vehicle: saline with Tween-80 104 % of control | dose: 400.0 mg/kg/injection, schedule: Q04DX003 (ip), vehicle: saline with Tween-80 104 % of control and 124 % of control

COc1ccccc1C(=O)CCN(C)C
inactive: dose: 15.0 mg/kg/injection, schedule: Q01DX005 (ip), vehicle: saline 98 % of control | dose: 30.0 mg/kg/injection, schedule: Q01DX005 (ip), vehicle: saline 112 % of control | [12] 114 % of control and 97 % of control

CC(=O)OCC12C=CC(O1)C1C(=O)OC(=O)C12 (stereo unspecified)
inactive: [9] 94 % of control | [10] 88 % of control

CCOC(=O)C(C)P(=O)(OC)OC (stereo unspecified)
inactive: [1] 100 % of control | [2] 98 % of control | [3] 103 % of control

COc1ccc(C(c2cc3c(cc2O)OCO3)N2CCCC2)cc1 (stereo unspecified)
inactive: dose: 60.0 mg/kg/injection, schedule: Q01DX005 (ip), vehicle: Klucel (hydroxypropylcellulose) (HPC) 100 % of control | dose: 120.0 mg/kg/injection, schedule: Q01DX005 (ip), vehicle: Klucel (hydroxypropylcellulose) (HPC) 100 % of control

CC(=O)Nc1cccc2c1C(=O)OC2=O
inactive: [5] 100 % of control | [14] 109 % of control | [13] 108 % of control | dose: 400.0 mg/kg/injection, schedule: Q01DX009 (ip), vehicle: saline with Tween-80 102 % of control

O=S(=O)(F)c1ncc2[nH]cnc2n1
inactive: dose: 12.5 mg/kg/injection, schedule: Q01DX005 (ip), vehicle: saline with Tween-80 109 % of control | dose: 25.0 mg/kg/injection, schedule: Q01DX005 (ip), vehicle: saline with Tween-80 114 % of control | [9] 106 % of control and 111 % of control | [10] 108 % of control

COC(=O)c1c(C)cc(OC(=O)c2c(C)cc(O)c(C=O)c2O)c(C)c1O
inactive: dose: 0.25 mg/kg/injection, schedule: Q01DX009 (ip), vehicle: saline with Tween-80 104 % of control | dose: 0.5 mg/kg/injection, schedule: Q01DX009 (ip), vehicle: saline with Tween-80 92 % of control | dose: 1.0 mg/kg/injection, schedule: Q01DX009 (ip), vehicle: saline with Tween-80 104 % of control | [6] 95 % of control | [7] 90 % of control | [8] 95 % of control

Nc1nc(Cl)nc2c1ncn2C1OC(CO)C(O)C1O (stereo unspecified)
active: dose: 25.0 mg/kg/injection, schedule: Q01DX010 (ip), vehicle: carboxymethylcellulose (CMC) 150 % of control
inactive: dose: 3.1 mg/kg/injection, schedule: Q01DX010 (ip), vehicle: carboxymethylcellulose (CMC) 105 % of control | dose: 6.2 mg/kg/injection, schedule: Q01DX010 (ip), vehicle: carboxymethylcellulose (CMC) 120 % of control

Cc1oc(-c2ccccc2F)nc1C(N)=O
inactive: [5] 96 % of control | [14] 95 % of control | [13] 91 % of control
